Read-outs that look alike come from different tables or passages of the source. Blank lines part the entries; values can stand above or below the compound they belong to. Starred links: 1 amine or outer side, 2 acyl side, 3 side chain; linkers in the order of their positions; H or OH if unused. Positions of bridges follow the written chain, without caps; N, C: chain ends. Non-standard residues stand in square brackets, D forms with d. Residues, ends and D or L forms follow the SMILES beside them. No end group written: not given here. *: point of attachment. dProlinol(O-CH2CO) = O=C(COC[C@H]1CCCN1[*:1])[*:2]; N(2-Aminoethyl)Gly = O=C(CN(CCN[*:3])[*:1])[*:2]; Nle = CCCC[C@H](N)C(=O)O; Ms = CS(=O)(=O)*; Sar = CNCC(=O)O
Legend:
[1] = test system: peripheral blood mononuclear cells (PBMC); assay: Cell death in normal peripheral blood mononuclear cells, annexin V positivity and FACS; format: cell-based; details: 6.25-50 ug/ml, six hours
Experimental: Peripheral blood mononuclear cells (PBMC) were isolated from a normal donor. Cells were treated with 6.25, 12.5, 25 and 50 ug/ml for six hours and cell death was measured by annexin V positivity and FACS analysis.
(§1) CD34^+ hematopoietic progenitor cells were isolated from peripheral blood and treated for 2 hrs with integrin interaction inhibitors (12.5 and 50 μg/ml) and then plated in a methylcellulose media supplemented with growth factors supporting myeloid and erythroid colonies. Colonies were counted on day 12 post-plating. […] In addition, we evaluated the toxicity of integrin interaction inhibitors in normal peripheral blood mononuclear cells (PBMC).

[2] = test system: U266; assay: Drug combination, cell viability by CT-Blue assay, Chou and Talalay Combination Index; format: cell-based; details: combination with the named agent
[3] = test system: H929 myeloma cells; format: cell-based; details: for bioactivity of cyclic III peptide analogs, in words: SAR discussion of Table 8; for change in activity relative to the inverso peptide L-cINTEGRIN INTERACTION INHIBITORS: alanine scan and analogs, Table 4 legend
Experimental: H929 cells were treated for 24 hours with varying concentrations of peptide. Cell death was measured by Topro-3 staining and FACS analysis. The IC50 values were obtained from linear regression analysis and an average value was obtained from 3 independent experiments.
Table 4 legend: Structure activity relationship in H929 myeloma cells of cyclic INTEGRIN INTERACTION INHIBITORS derivatives. The minimal bioactive core sequence of INTEGRIN INTERACTION INHIBITORS WSVVM (SEQ ID NO:85) was cyclized using 2 novel reduced amide bond beta turn promoters and KLKLK (SEQ ID NO:27) as the non-recognition sequence. H929 cells were treated with varying concentrations of the indicated peptide for 24 h. Cell viability was determined using Topro-3 staining and FACS analysis after drug treatment. IC50 values were generated from linear regressions generated from the dose response curves (n=mean of 3 independent experiments).
Using combinatorial peptide libraries and a functional binding assay, several peptides have been identified that inhibited α2β1 and α6β1 integrin mediated adhesion of prostate cancer cells to fibronectin, laminin and collagen IV.^1 They identified an all D-amino acid containing peptide referred as HYD1 ([…]) (SEQ ID NO:278) that blocks binding of epithelial prostate carcinoma cells to extracellular matrix components.^2,3 Hazlehurst and co-workers have truncated the N- and C-termini and alanine scan studies identified MVISW (SEQ ID NO:279) as the likely core region of linear D-HYD1 required for biological activity. […] The pentapeptide (KLKLK) (SEQ ID NO:27) was selected as the non-recognition strand to improve the solubility. N- to C-terminus cyclization of linear peptides was done to restrict the number of conformations available to the linear peptide which increases the affinity of the cyclized peptide for its target when the constraint stabilizes the bound conformation of the peptide. We synthesized cyclic D-HYD1 using a novel methylsulfonamide aminoethyl glycine linker T1 that connects two anti-parallel strands. […] The inverso- (peptide 2, Table 4) and partially modified retro-inverso (PMRI) (peptide 10) pentapeptide sequences of the recognition strand of cyclic III (Integrin Interaction Inhibitors also known as cyclic L-HYD1) peptide analogs were subsequently investigated for their potential to block beta integrin mediated cell adhesion. The retro-inverso design of biologically active peptides is a well-known strategy to design all D-amino acid peptides from potentially bioactive all L-peptide sequences with increased stability^4-7.
A colony forming assay was used to compare induced cell death in H929 multiple myeloma cells. Cells were treated with integrin interaction inhibitors, shown in FIG. 5 and Table 4, and cell death was measured following 24 hour peptide treatment by TOPRO-3 staining and FACS analysis.

[4] = Weight and overt toxicity of mice injected with c-HYD1; format: in vivo
Experimental: (§2) Briefly, 50,000 H929 myeloma cells were engrafted into the bone implant for 10 days prior to initiation of peptide treatment. Following tumor engraftment mice were randomized (0 time point) and injected with 8 mg/kg c-HYD1 or vehicle control (VC) daily (I.P. injections) for 14 days and every other day from day 14-28 at which time treatment stopped. Tumor burden was measured by circulating Kappa levels by ELISA weekly. N=10 mice for vehicle control (VC) and 9 mice for c-HYD1 treated.
FIG. 42 is a graph showing the effect of cyclized HYD1 (c-HYD1) injection on the weight of mice.

[5] = test system: H929 myeloma cells; assay: MM SCID-Hu in vivo model, tumor burden by circulating Kappa levels (ELISA); set-up: species or system mice; details: 8 mg/kg I.P. daily 14 days, every other day day 14-28; p<0.05 ANOVA vs vehicle
Experimental: as §2, §1

[6] = H929 cells, 24 hours, Topro-3 and FACS, read-out: IC50 value in H929 cells

Compound: CC[C@@H](C)[C@@H](NC(=O)[C@H](N)CCCCN)C(=O)N[C@H](CCCCN)C(=O)N[C@H](CCSC)C(=O)N[C@@H](C(=O)N[C@@H](C(=O)N[C@H](CO)C(=O)N[C@H](Cc1c[nH]c2ccccc12)C(=O)N[C@H](CCCCN)C(=O)NCC(=O)O)[C@H](C)CC)C(C)C [HYD1]
cell death in normal PBMC [1]: more potent in MM cells (H929) compared to normal hematopoietic cells

Compound: arsenic trioxide
synergy with integrin interaction inhibitors, in words [2]: strong synergism

Compound: CCCC[C@@H]1NC(=O)[C@H](C(C)C)NC(=O)[C@H](C(C)C)NC(=O)[C@H](C)NC(=O)[C@H](Cc2c[nH]c3ccccc23)NC(=O)COC[C@H]2CCCN2C(=O)[C@H](CCCCN)NC(=O)CN(C)C(=O)[C@H](CCCCN)NC(=O)CN(C)C(=O)[C@H](CCCCN)NC(=O)COC[C@H]2CCCN2C1=O [Peptide 23, KXKXKT3WAVVN*T3] (cyclo(K[Sar]K[Sar]K[dProlinol(O-CH2CO)]WAVV[Nle][dProlinol(O-CH2CO)]))
bioactivity of cyclic III peptide analogs, in words [3]: poor bioactivity

Compound: CCCC[C@@H]1NC(=O)CN(S(C)(=O)=O)CCNC(=O)[C@H](CCCCN)NC(=O)[C@H](CC(C)C)NC(=O)[C@H](CCCCN)NC(=O)[C@H](CC(C)C)NC(=O)[C@H](CCCCN)NC(=O)COC[C@H]2CCCN2C(=O)[C@H](Cc2c[nH]c3ccccc23)NC(=O)[C@H](C)NC(=O)[C@H](C(C)C)NC(=O)[C@H](C(C)C)NC1=O [Peptide 16, KLKLKT1N*VVAWT3] (Ms-[N(2-Aminoethyl)Gly][Nle]VVAW[dProlinol(O-CH2CO)]KLKLK; lactam 1-C)
IC50 [3, 6]: 1 µM

Compound: CSCC[C@@H]1NC(=O)CN(S(C)(=O)=O)CCNC(=O)[C@H](CCCCN)NC(=O)[C@H](CC(C)C)NC(=O)[C@H](CCCCN)NC(=O)[C@H](CC(C)C)NC(=O)[C@H](CCCCN)NC(=O)CN(S(C)(=O)=O)CCNC(=O)[C@H](Cc2c[nH]c3ccccc23)NC(=O)[C@H](C)NC(=O)[C@H](C(C)C)NC(=O)[C@H](C(C)C)NC1=O [Peptide 4, KLKLKT1MVVAWT1]
bioactivity of cyclic III peptide analogs, in words [3]: significantly improved the bioactivity

Compound: CSCC[C@@H]1NC(=O)CN(S(C)(=O)=O)CCNC(=O)[C@H](CCCCN)NC(=O)[C@H](CC(C)C)NC(=O)[C@H](CCCCN)NC(=O)[C@H](CC(C)C)NC(=O)[C@H](CCCCN)NC(=O)CN(S(C)(=O)=O)CCNC(=O)[C@H](Cc2c[nH]c3ccccc23)NC(=O)[C@H](CO)NC(=O)[C@H](C)NC(=O)[C@H](C(C)C)NC1=O [III 4]
change in activity relative to the inverso peptide L-cINTEGRIN INTERACTION INHIBITORS ([3]; H929 cells): decrease in activity

Compound: COc1cccc2c1C(=O)c1c(O)c3c(c(O)c1C2=O)C[C@@](O)(C(=O)CO)C[C@@H]3O[C@H]1C[C@H](N)[C@H](O)[C@H](C)O1 [doxorubicin]
synergy with integrin interaction inhibitors, in words [2]: strong synergism

Compound: CCCC[C@@H]1NC(=O)CN(S(C)(=O)=O)CCNC(=O)[C@H](CCCCN)NC(=O)[C@H](CC(C)C)NC(=O)[C@H](CCCCN)NC(=O)[C@H](CC(C)C)NC(=O)[C@H](CCCCN)NC(=O)CN(S(C)(=O)=O)CCNC(=O)[C@H](Cc2c[nH]c3ccccc23)NC(=O)[C@H](CO)NC(=O)[C@H](C(C)C)NC(=O)[C@H](C(C)C)NC1=O [Peptide 8, KLKLKT1N*VVSWT1]
bioactivity of cyclic III peptide analogs, in words [3]: further increase of the peptide's bioactivity

Compound: CCCC[C@@H]1NC(=O)CN(S(C)(=O)=O)CCNC(=O)[C@H](CCCCN)NC(=O)[C@H](CC(C)C)NC(=O)[C@H](CCCCN)NC(=O)[C@H](CC(C)C)NC(=O)[C@H](CCCCN)NC(=O)COC[C@H]2CCCN2C(=O)[C@H](Cc2c[nH]c3ccccc23)NC(=O)[C@H](C)NC(=O)[C@H](Cc2ccccc2)NC(=O)[C@H](C(C)C)NC1=O [Peptide 26, KLKLKT1N*VFAWT3] (Ms-[N(2-Aminoethyl)Gly][Nle]VFAW[dProlinol(O-CH2CO)]KLKLK; lactam 1-C)
IC50 ([3]; cyclic III peptide analogs, Table 8, H929 cells, TOPRO 3, read-out: IC50): 9 µM

IC50 ([3]; 24 h): 69 µM
Compound: CC(C)C[C@@H]1NC(=O)[C@H](CCCCN)NC(=O)CN(S(C)(=O)=O)CCNC(=O)[C@H](C)NC(=O)[C@H](C(C)C)NC(=O)[C@H](C(C)C)NC(=O)[C@H](C)NC(=O)[C@H](Cc2c[nH]c3ccccc23)NC(=O)CN(S(C)(=O)=O)CCNC(=O)[C@H](CCCCN)NC(=O)[C@H](CC(C)C)NC(=O)[C@H](CCCCN)NC1=O [Peptide 12, KLKLKT1WAVVAT1]

Compound: NorLeuVVAW: cyclic compound combining both modifications, recognition strand NorLeuVVAW (SEQ ID NO:41) ([Nle]VVAW; also: cyclic, closure not given here)
fold more potent than the parent linear HYD1 peptide ([3]; H929 cells): 30 fold

Compound: CSCC[C@@H]1NC(=O)CN(S(C)(=O)=O)CCNC(=O)[C@H](CCCCN)NC(=O)[C@H](CC(C)C)NC(=O)[C@H](CCCCN)NC(=O)[C@H](CC(C)C)NC(=O)[C@H](CCCCN)NC(=O)CN(S(C)(=O)=O)CCNC(=O)[C@H](Cc2c[nH]c3ccccc23)NC(=O)[C@H](CO)NC(=O)[C@H](C(C)C)NC(=O)[C@H](C)NC1=O [III 5]
change in activity relative to the inverso peptide L-cINTEGRIN INTERACTION INHIBITORS ([3]; H929 cells): increase in activity

Compound: CCCC[C@@H]1NC(=O)CN(S(C)(=O)=O)CCNC(=O)[C@H](CCCCN)NC(=O)[C@H](CC(C)C)NC(=O)[C@H](CCCCN)NC(=O)[C@H](CC(C)C)NC(=O)[C@H](CCCCN)NC(=O)COC[C@H]2CCCN2C(=O)[C@H](Cc2c[nH]c3ccccc23)NC(=O)[C@H](C)NC(=O)[C@H](C(C)C)NC(=O)[C@H](C(C)C)NC1=O [c-HYD1] (Ms-[N(2-Aminoethyl)Gly][Nle]VVAW[dProlinol(O-CH2CO)]KLKLK; lactam 1-C)
fold more potent than the parent linear HYD1 peptide ([3]; H929 cells): 30 fold
IC50 [3, 6]: 1.2 µM
weight loss and overt signs of toxicity [4]: No weight loss or any overt signs of toxicity were observed
tumor growth (circulating Kappa levels) [5]: significantly reduces tumor growth

Compound: NorLeuVVSW: cyclic compound with recognition strand NorLeuVVSW (SEQ ID NO:39), methionine replaced by nor-Leucine ([Nle]VVSW; also: cyclic compound, closure not given here)
fold more potent than the parent linear HYD1 peptide ([3]; H929 cells): 15 fold
